Experimental data reported in US9910031B2, “Compositions and methods for modulating c-Rel-dependent cytokine production” (Synta Pharmaceuticals Corporation, priority 2003, dated 2018).

Key:
[1] = tested on: ICSBP; experiment: Western blot of ICSBP in THP-1 nuclear extracts (Ets-2 DNA element beads); type: cell-based, human
Description: Of the transcription factors that have been analyzed, two factors, ICSBP and c-Rel, seem to be affected by Compound 1/Compound 2 treatment. ICSBP binds indirectly to the Ets-2 site. The primary NFκB trans-activator for IL-12 is the c-Rel/p50 heterodimer. Other dimers (p65/p50 and p50/p50) either lack activity or have inhibitory functions. Thus, c-Rel plays a role in IL-12 transcription as a result of both activation through NFκB and its interaction with ICSBP. […] The membranes were blocked with 5% milk in TBST buffer and then incubated with anti-c-Rel, anti-p65, anti-p50, anti-ICSBP or anti-PU-1 antibody (all the antibodies were purchased from Santa Cruz) at a dilution of 1:500 for 1 h at room temperature or overnight at 4° C. The membranes were washed and incubated with Horseradish Peroxidase-conjugated anti-rabbit IgG or anti-mouse IgG (Amersham, England) at a dilution of 1:2000 at room temperature for 1 h.
The transcription factor ICSBP binds to the Ets-2 element indirectly through binding to PU-1. Nuclear extracts were bound to Ets-2 DNA element beads, the beads isolated to separate bound from free protein, and the proteins analyzed on Western blots using antibodies to either ICSBP or PU-1. Conjugation of Ets-2 DNA to beads was accomplished by the following method. Biotinylated DNA fragment encompassing the IL-12 p40 Ets-2 site (−292 to −196) were synthesized from the 1.3 kb wild-type human IL-12 p40 reporter by PCR using a biotinylated primer as detailed in The Journal of Immunology, 2000, vol 165. pages 271-279. PCR products were purified by the Qiaquick Kit (Qiagen, Chatsworth, Calif.). Two μg of biotinylated DNA were conjugated to 100 μl of streptavidin-hound magnetic beads (Dynabeads, M280, Dynal, Lake Success, N.Y.) in buffer containing 10 mM Tris-HCL, pH 8.0, 1 mM EDTA, 0.1 M NaCl. […] Eluted materials were separated by 10% SDS-PAGE and detected by immunoblot analysis using anti-ICSBP or anti-PU-1 antibody.

[2] = tested on: IL-12 production in THP-1 cells; experiment: Inhibition of IL-12 production in THP-1 cells (ELISA); type: cell-based; settings: Homo sapiens, read-out: IC50 against IL-12 production
Description: The foregoing and other useful combination therapies will be understood and appreciated by those of skill in the art. Potential advantages of such combination therapies include the ability to use less of each of the individual active ingredients to minimize toxic side effects, synergistic improvements in efficacy, improved ease of administration or use and/or reduced overall expense of compound preparation or formulation. The biological activities of a compound of this invention can be evaluated by a number of cell-based assays. One of such assays can be conducted using cells from human peripheral blood mononuclear cells (PBMC) or human monocytic cell line (THP-1). The cells are stimulated with a combination of human interferon-γ (IFN-γ) and lipopolysaccharide or a combination of IFN-γ and Staphylococcus aureus Cowan I in the presence of a test compound. The level of inhibition of IL-12 production can be measured by, e.g., determining the amount of p70 by using a sandwich ELBA assay with anti-human IL-12 antibodies. IC50 of the test compound can then be determined. Specifically, PBMC or THP-1 cells are incubated with the test compound. Cell viability was assessed using the bioreduction of MTS [3-(4,5-dimethylthiazol-2-yl)-5-(3-carboxymethoxyphenyl)-2-(4-sulfophenyl)-2H-tetrazolium] (Promega, Madison, Wis.). […]

With `C(=NNc1nc(OCCc2ccccn2)nc(N2CCOCC2)n1)c1c[nH]c2ccccc12` [Compound 1, N-(1H-indol-3-ylmethylene)-N′-[4-morpholin-4-yl-6-(2-pyridin-2-yl-ethoxy)-[1,3,5]triazin-2-yl]-hydrazine] the “amount of ICSBP protein in nuclear extracts (FIG. 5)” value ([1]; THP-1 cells) was “significant reduction” and the IC50 [2] was 40 nM.

`Cc1cccc(C=NNc2cc(N3CCOCC3)nc(OCCc3ccccn3)n2)c1` [Compound 2, N-(3-methyl-benzylidene)-N′-[6-morpholin-4-yl-2-(2-pyridin-2-yl-ethoxy)-pyrimidin-4-yl]-hydrazine] was tested, and the ICSBP expression [1] was “reduced”, the “ICSBP in the nuclei of treated cells” value [1] was “reduced” and the IC50 [2] was 10 nM.
